“Also recorded” adds a separate entry of the source.
Columns and labels:
[1] = tested on: bphA gene; assay: RNA (Northern) blot of bphA gene transcription in mycelia; format: cell-based, Aspergillus niger; settings: 8 mM inducer, RNA blot (FIG. 4)
Description: The time course gene expression induction was examined by analyzing total RNA at different times after adding benzoic acid. Northern (RNA) blots were carried out using total RNA extracted from mycelia grown for different periods of time in the presence of benzoic acid. Initially, the fungus was inoculated in CM medium (Pontecorvo (1953) Adv. Genet. 5: 141-238) for 24 hours, transferred to benzoate-containing medium (0.1% w/v) for different times, and total RNA was extracted using the Rneasy Plant Total RNA kit (Qiagen Inc, Valencia, Calif.) according to the manufacturer's instructions. Total RNA was resolved on a formaldehyde-agarose gel and transferred to a Hybond-N nylon membrane (Amersham Life Sci. Inc, Arlington Heights, Ill.). Radiolabeled BPH probe was allowed to hybridize to the membrane, as described above. Northern blot methods were also carried out as recommended (Amersham).
Different benzoate concentrations and inducers were used to better characterize the inducibility of the bphA gene. Gene expression was assayed by Northern blots. Benzoate 4-hydroxylase activity is also assessed by enzymatic assays to confirm the inducibility at the transcriptional level described by Van Gorcom et al. ((1990) Mol. Gen. Genet. 223, 192-197). Inducibility is also verified by reverse transcription of mRNAs produced under induction conditions.
To verify the inducibility of the bphA gene by benzoic acid, A. niger was inoculated in complete medium and grown for 24 hours before being transferred to fresh medium containing 0.1% benzoic acid. Mycelia were harvested after different periods of induction, and total RNA was extracted.

[2] = tested on: BRE; assay: Activation of BRE fused to GFP in fungal protoplasts (surface receptor test); format: cell-based
Description: While not necessary to understand to practice the invention, a more complicated mechanism of induction may include a surface receptor that binds to benzoate and which then initiates either some kind of signal transduction cascade or the release of a TF that then culminates in the activation of the BPH promoter (FIGS. 12C and D). The hypothesis of a surface receptor was tested by using the p-NH2-benzoate coupled to agarose (as described above) as a non-cleavable external probe. Fungal protoplasts containing the BRE fused to GFP were then prepared, and activation of the BRE (production of the GFP marker) by addition of the agarose-immobilized benzoate derivative to the fungal protoplasts was scored. […] In order to investigate whether the disparity of size between the larger agarose beads and fungal protoplasts may have caused steric problems in binding of the inducer, smaller ligands still incapable of uptake are constructed and utilized to confirm a non-membrane surface location.
The hypothesis of a surface receptor was tested by using the p-NH2-benzoate coupled to agarose (as described above) as a non-cleavable external probe. Fungal protoplasts containing the BRE fused to GFP were then prepared, and activation of the BRE (production of the GFP marker) by addition of the agarose-immobilized benzoate derivative to the fungal protoplasts was scored. […]

[3] = tested on: BREF51; assay: Electrophoretic Mobility Shift Assay (EMSA) with total protein extracts from yeast GAD clones; format: binding, A. niger; settings: 5 μg total yeast protein extract
Source text: The protein encoded by GAD1 (SEQ ID NO:15) is highly similar to a predicted protein present in the A. nidulans genome (E value 2e^−83), and similar to a hypothetical protein (B24P11.210) in the N. crassa genome (E value 4e^−27) (Table 2). GAD1 protein is rich in serine residues (16%), and is predicted by PSORTII (Nakai and Horton (1999) Trends Biochem. Sci. 24: 34-35) to be localized in the nucleus (70.6% probability). […] Serine-rich motifs can be phosphorylation targets by protein kinase C in proteins (Branden and Tooze (1999) Introduction to protein structure, 2nd ed. Garland Publishing, New York, N.Y. 410 p.). […] While not necessary to understand in order to practice the present invention, if GAD1 is involved in the regulation of BPHprom, GAD1 protein might be always bound to a benzoic acid response element in the bphA promoter. […] However, addition of benzoic acid could cause phosphorylation of one of the serine residues in GAD1, leading to its activation. […]
Positive clones identified on the one-hybrid screen were grown in 100 mL of SD/-Leu media, and total proteins were extracted following a modified procedure from that described by Arndt et al. ((1987) Science 237: 874-880). […] Protein concentration of the resulting supernatant was determined by the Bradford method (Bio-Rad, Hercules, Calif.), and BSA was used as a standard.

Row | Molecule | induction of transcription of the bphA gene [1] | other results
1 | OCc1ccccc1 [benzyl alcohol] | do not induce the promoter | induction of transcription of the bphA gene ([1]; listed as Benzyl alcohol): not effective inducers
2 | O=C(O)CCc1ccccc1 [hydrocinnamic acid] | do not induce the promoter; also recorded: not effective inducers | 
3 | COC(=O)c1ccccc1 [methyl benzoate] | can induce the promoter; also recorded: induced | 
4 | Nc1ccc(C(=O)O)cc1 [p-aminobenzoate] |  | GFP fluorescence in the BRE-GFP transformed line [2]: induced GFP fluorescence
5 | O=C([O-])c1ccccc1.[Na+] [sodium benzoate] | can induce the promoter; also recorded: induced | 
6 | GAD11: protein encoded by yeast one-hybrid clone GAD11 (SEQ ID NO:17), candidate transcription factor binding BREF51 (protein, Aspergillus niger) DSAESRFSLHSQGSVPPAPSTATKHMTPHNHTNNHGGPLPSKPGSEGASNNGTQITGPHESNLIEQFREREDKLWAYVRSVHEELNGLRTEVAALRAQLASANVNALAMSSQSAPQSQPETNAAGTSQR |  | gel mobility shift of the BREF51 fragment [3]: showed a gel mobility shift; also recorded: positive mobility shifts
7 | GAD1: protein encoded by yeast one-hybrid clone GAD1 (SEQ ID NO:15), candidate transcription factor binding BREF51 (protein, Aspergillus niger) MVSFKSLLTATTLATAVLAIPHSGHGHGSHKHRSTHVASKRTSSSKRGAAYNSASSVHTLTSGSSGNGTVSWAYDWNMYADGTLPSNVEYVPMLWGSKMFGGWLTAIETALDSGSNYIMGFNEPDSSSQASMTASEAASSYKNYITPYSGKAKLVTPAVTSSTTEGEGLSWMKSFLSECSECDMSVLAVHWYGTSADEFKSFVQEAMQVADDNGLDETWVTEFALTSDESAGGDESSAADFLDEGVGRYAYYMCADGYLLSGEELSSSGKVYVA |  | gel mobility shift of the BREF51 fragment [3]: showed a gel mobility shift; also recorded: positive mobility shifts

Source: patent US7705203B2, “Benzoate inductible promoters” (Purdue Research Foundation, priority 2002, dated 2010)
